Laboratory results as given in patent US5968751A, “Method for detecting the presence of protein C antibody in a fluid sample” (The Scripps Research Institute, priority 1997, dated 1999).
No end group written: not given here.

Assays:
APC [1] = target: T1, APC (Homo sapiens, UniProt P04070); assay: Xa-1-stage coagulation assay, inhibition of APC anticoagulant activity; format: biochemical; parameters: Protein C consists of a 155 amino acid residue light chain and a 262 amino acid residue heavy chain; from tissue; host or cells: human plasma factor IX concentrate; settings: final peptide concentration 500 μM; NHP; 0 = no observable effect +10%
Description: For testing the inhibition of the synthetic peptides on APC activity described above, Xa-1-stage coagulation assays were also performed as described. See Seegers et al., Thrombosis Res., 13:233-243 (1978); Marlar et al., supra; and Walker et al., J. Biol. Chem., 265:1484-1489 (1990). PC heavy chain-derived peptides listed below in Table 6 and PC light chain-derived peptides listed below in Table 7 were prepared as described above and separately admixed for a final concentration of 2 mM with 120 nM APC in 100 μl of TBS-BSA at pH 7.4 to form separate peptide-APC admixtures. The resulting admixtures were maintained for ten minutes at 37° C. Separate aliquots of peptides maintained under the same conditions in the absence of APC served as controls for the inhibitory effect of synthetic peptides on APC anticoagulant activity. After the maintenance period, 100 μl of NHP and 100 μl of 200 μg/ml of rabbit brain cephalin (Sigma) were admixed into each peptide admixture and maintained for 200 seconds at 37° C. to form pre-coagulation admixtures. In some experiments, Factor VIII deficient plasma (George King Bio-Medical, Inc.) was used in the place of NHP to determine the effect of Factor VIII on the assay system. Coagulation was then initiated by the admixture of 100 μl of 0.62 nM human activated Factor X (Xa) (Enzyme Research Laboratories, Southbend, Ind.) in TBS-BSA containing 30 mM CaCl2 prewarmed to 37° C. to each of the pre-coagulation admixtures.
The time for clot formation was measured by an Electra 700 Automatic Coagulation Timer (Medical Laboratory Automation, Inc., Mount Vernon, N.Y.). Each peptide's effect was determined in duplicate. The results of the inhibition of APC anticoagulant activity by synthetic peptides as measured in Xa-1-stage coagulation assays are presented in Tables 6 and 7 below with the APTT assay results and are presented as the mean values obtained with APTT assays. Data for results with PC heavy chain-derived peptides are shown in Table 6 and data for results with PC light chain-derived peptides are shown in Table 7.
The results of inhibition of APC anticoagulant activity by PC light chain-derived peptides in a Xa-1 stage coagulation assay are shown in Table 7. The assay was performed in the presence of NHP. Peptides used in the assay were prepared as described in Example 1 and are listed in Table 7 by their corresponding residue positions in native PC protein (SEQ ID NO 1). For all peptides except PC142-155 used in the Xa-1 stage assays listed in Table 7, cysteine residues in the native PC amino acid residue sequence were substituted by either serine or glycine in the synthesized peptide. This was done to prevent multiple disulfide formation and subsequent potential polymerization among peptides with multiple cysteines. […]
Target sequence in this assay (P04070 43-197 limits assumed): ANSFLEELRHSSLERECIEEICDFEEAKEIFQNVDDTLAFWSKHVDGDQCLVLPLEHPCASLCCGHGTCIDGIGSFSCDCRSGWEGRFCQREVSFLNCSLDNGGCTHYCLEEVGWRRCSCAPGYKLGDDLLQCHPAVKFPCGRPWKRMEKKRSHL
Target sequence in this assay (P04070 212-450 limits assumed): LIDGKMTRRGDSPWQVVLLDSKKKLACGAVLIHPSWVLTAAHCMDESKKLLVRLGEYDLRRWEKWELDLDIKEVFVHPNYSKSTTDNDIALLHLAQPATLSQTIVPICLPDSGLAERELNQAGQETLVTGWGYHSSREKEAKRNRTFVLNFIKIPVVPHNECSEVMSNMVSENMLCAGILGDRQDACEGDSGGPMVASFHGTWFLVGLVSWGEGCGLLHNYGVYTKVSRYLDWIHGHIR

APC [2] = target: T1, APC; parameters: Protein C consists of a 155 amino acid residue light chain and a 262 amino acid residue heavy chain; from tissue; alpha1-AT mutant from Transgene, Strasbourg; settings: Heeb et al. 1990; cited from earlier work
Target sequence in this assay (P04070 43-197): as the sequence (P04070 43-197 limits assumed) above
Target sequence in this assay (P04070 212-461): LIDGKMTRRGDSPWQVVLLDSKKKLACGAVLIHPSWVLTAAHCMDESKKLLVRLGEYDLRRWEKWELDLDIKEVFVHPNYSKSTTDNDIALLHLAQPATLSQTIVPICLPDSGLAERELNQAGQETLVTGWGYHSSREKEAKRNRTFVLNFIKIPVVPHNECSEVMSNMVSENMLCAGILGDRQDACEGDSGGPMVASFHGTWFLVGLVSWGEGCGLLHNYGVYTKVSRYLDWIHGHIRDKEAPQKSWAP

Row | Substance | inhibition at 500 µM (APC [1]) [%] | increase in the association rate for APC by substitution of Met358 by Arg (APC [2])
1 | HPAVKFPSGRPWKRM-NH2 (C-terminus assumed) [PC134-148] | 66 | –
2 | α1 -AT: recombinant mutant (Arg358)-α1-antitrypsin, macromolecular pseudo-substrate inhibitor of APC (Transgene) | – | over 4400 fold
